Assays:
[1] = test system: mdx mice; assay: Histological analysis of muscular fibrosis incl. immunofluorescent staining for collagen VI in mdx mice, 1st study; assay type: in vivo, mouse
Description: The treatment of the mdx mice with nintedanib started at an age of 10 months in the 1st study and at 6 weeks in a 2nd study. Treatment duration was 4 weeks in the 1st study and 7 weeks in the 2nd study. Nintedanib was used at a dose of 60 mg/kg once daily administered intragastrically via gavage in both studies.
(§1) In the 1st study, 7 mdx mice were treated with nintedanib, 5 mdx mice with the vehicle as placebo and 5 C57Bl6/mice (=wild type=WT) were used as unaffected, untreated control animals. At the end of the 1st study, electrophysiological examinations using electroneurography and electromyography and a histological analysis were performed. In addition, the level of collagen I expression was investigated using western blot in 4 mice of each test group.
At the end of the 1st study, the diaphragm from non-treated mdx mice had increased fibrotic tissue areas, compared to WT mice, and inflammatory infiltrates.
The fibrotic area of the muscles was assessed using immunofluorescent staining for collagen VI (Col VI). 8 photographs from different muscle sections of the quadriceps, tibialis anterior and diaphragm were randomly taken. […] The reduction of 7% by nintedanib treatment was statistically significant (p<0.001) (FIG. 3A).

[2] = test system: mdx mice; assay: Electromyography (percentage of small, medium and large MUAPs) in mdx mice, 1st study; assay type: in vivo, mouse; conditions: mdx mice aged 10 months, 60 mg/kg once daily intragastrically, 4 weeks
Source text: (§2) The mdx mouse is a well characterized and widely used animal model for drug tests for DMD (Bulfield et al., Proc Natl Acad Sci USA 1984, 81, 1189-92). Mdx mice spontaneously develop a pathology resembling aspects of the human disease. They present cycles of degeneration and regeneration in the limb muscles and a progressive degeneration and fibrosis in the diaphragm (Coirault et al., J Appl Physiol 2003, 94, 1744-50). The first wave of degeneration peaks in the fourth week of life. At day 21, muscular lesions can be observed, including myofiber necrosis, leaking myofibers as a consequence of injuries to the sarcolemma, high levels of serum creatine kinase, and the presence of large areas of inflammation, connective tissue, and fat (Collins and Morgan, Int J Exp Pathol 2003, 84, 165-72; Grounds et al., Neurobiol Dis 2008, 31, 1-19). Compulsory physical activity can be applied to exacerbate the muscular degeneration during this phase (De Luca et al., Am J Pathol 2005, 166, 477-89; Grounds et al., Neurobiol Dis 2008, 31, 1-19). The treatment of the mdx mice with nintedanib started at an age of 10 months in the 1st study and at 6 weeks in a 2nd study. […] In the electromyography the percentage of small, medium and large motor unit action potentials (MUAPs) were recorded (Gordon et al., Can J Physiol Pharmacol 2004, 82, 645-661).

[3] = test system: mdx mice; assay: Electroneurography (amplitude of motor evoked potentials / CMAP) in mdx mice, 1st study; assay type: in vivo, mouse; conditions: mdx mice aged 10 months, 60 mg/kg once daily intragastrically, 4 weeks; versus non-treated mdx mice; statistically significant in tibialis anterior
Source text: as §2, with “group of” for “electromyography”, “nintedanib-treated mdx mice, an increase in the amplitude” for “percentage”, “the” for “small, medium and large”, “evoked” for “unit action”, “in all nerves studied was detected in comparison to non-treated mdx mice (FIG. 1A-C). […]” for “(MUAPs) were recorded (Gordon et al., Can J Physiol Pharmacol 2004, 82, 645-661).”

[4] = test system: mdx mice; assay: Collagen I expression by western blotting in muscle tissue of mdx mice, 1st study; assay type: in vivo, mouse; conditions: western blot, normalized to alpha-tubulin; versus mdx mice; 60 mg/kg once daily, 4 weeks
Description: as §1, with “The treatment of the mdx mice with nintedanib started at an age of 10 months in the 1st study and at 6 weeks in a 2nd study. Treatment duration was 4 weeks in the 1st study and 7 weeks in the 2nd study. Nintedanib was used at a dose of 60 mg/kg once daily administered intragastrically via gavage in both studies. In the” for “In the”

[5] = test system: mdx mice; assay: Hanging wire test in mdx mice, 2nd study; assay type: in vivo, mouse; conditions: mdx mice from 6 weeks of age, 60 mg/kg once daily intragastrically
Description: The treatment of the mdx mice with nintedanib started at an age of 10 months in the 1st study and at 6 weeks in a 2nd study. Treatment duration was 4 weeks in the 1st study and 7 weeks in the 2nd study. Nintedanib was used at a dose of 60 mg/kg once daily administered intragastrically via gavage in both studies. In the 2nd study, 7 mdx mice were treated with nintedanib, 5 mdx mice with the vehicle as placebo and no WT control was included as unaffected, untreated control animals. At the end of the 2nd study, a hanging wire test was performed. In the 2nd study a so called “hanging wire” test was performed (see section Examples and Experimental Data; Rabl et al., BMC Neurosci 2017, 18, 22). This test can be used to assess global “subacute” muscle function and coordination over time in young and old mdx mice. The longest suspension time (LST) and the “fall and reaches” score (FRS) were recorded before the start of the treatment period and after 7 weeks of treatment with nintedanib. […]

[6] = test system: animal model of DMD; conditions: literature (Bizario 2009; Huang 2009; Ito 2013); cited from earlier work

## COC(=O)c1ccc2c(c1)NC(=O)/C2=C(\Nc1ccc(N(C)C(=O)CN2CCN(C)CC2)cc1)c1ccccc1 [nintedanib, Nintedanib]
[1]; difference to non-treated mdx mice, p<0.001
  reduction of mean Col VI-stained fibrotic area of the diaphragma by treatment: 7%
[1]; mdx mice aged 10 months, 60 mg/kg once daily intragastrically, 4 weeks
  inflammatory infiltrates in the diaphragm (histology): not observed
[1]; mdx mice aged 10 months, 60 mg/kg once daily intragastrically, 4 weeks, versus non-treated mdx mice
  fibrotic area of the diaphragm (histology): clearly reduced
[1]; mdx mice aged 10 months, 60 mg/kg once daily, 4 weeks, non-treated mdx 21.4%, p=0.06, not statistically significant
  Col VI staining in tibialis anterior sections: 18.9%
[1]; mdx mice aged 10 months, 60 mg/kg once daily, 4 weeks, non-treated mdx 25.4%, p=0.03
  Col VI staining in quadriceps sections: 23.1%
[1]; mdx mice aged 10 months, 60 mg/kg once daily, 4 weeks, non-treated mdx 57.8%, p<0.001
  mean fibrotic area stained for Col VI on the diaphragma: 50.8%
[2]
  large MUAPs: increase
  percentage of small MUAPs: normalized
[3]
  amplitude of the motor evoked potentials (CMAP) in all nerves studied (tibialis anterior, Gastrocnemius, Plantar muscle): increase
[4]
  collagen I (Col I) expression in the diaphragm: statistically significant decrease
  collagen I (Col I) expression in the tibialis anterior: statistically significant decrease
[5]; 7 week observation period, decreased in vehicle-treated mice
  "fall and reaches" score (FRS): remained nearly constant
[5]; after 7 weeks of treatment versus before start
  longest suspension time (LST): increased

## Cc1ccc(NC(=O)c2ccc(CN3CCN(C)CC3)cc2)cc1Nc1nccc(-c2cccnc2)n1 [imatinib]
[6]
  efficacy in an animal model of DMD: had shown efficacy

Reference: patent US20180280385A1, “NINTEDANIB FOR USE IN METHODS FOR THE TREATMENT OF MUSCULAR DYSTROPHY” (Boehringer Ingelheim International GmbH, priority 2017, published 2018)
